Measured values from PMC11395096, “Study of Pentacyclic Triterpenes from Lyophilised Aguaje: Anti-Inflammatory and Antioxidant Properties” (International Journal of Molecular Sciences, 2024).
Starred links: 1 amine or outer side, 2 acyl side, 3 side chain; linkers in the order of their positions; H or OH if unused. Positions of bridges follow the written chain, without caps; N, C: chain ends. Non-standard residues stand in square brackets, D forms with d. Residues, ends and D or L forms follow the SMILES beside them. Chains are numbered I, II in the order given. Actinocin(9to1) = Cc1c2oc3c(C)ccc(C(=O)[*:1])c3nc-2c(C(=O)[*:2])c(N)c1=O; NMeV = CN[C@H](C(=O)O)C(C)C; Sar = CNCC(=O)O

Key:
Nrf2 = settings: cited from earlier work
[1] = NR (neutral red) viability assay, IC-21 cells; format: cell-based, Mus musculus; settings: mouse, IC-21, 72 h
Text: (§1) The IC-21 (Mus musculus macrophage cells, TIB-186) and RAW 264.7 (Mus musculus macrophage cells, TIB-71) cell lines used in this study were obtained from the American Type Culture Collection (ATCC, Manassas, VA, USA). The selection of IC-21 and RAW 264.7 cell lines for studies on inflammation and antioxidant activity is based on two main reasons: the cell type and their origin. Firstly, both IC-21 and RAW 264.7 cell lines are macrophages, which play a crucial role in the immune system, being essential for the inflammatory response and regulation of oxidative stress. These cells have the capacity to produce pro-inflammatory cytokines, express transcription factors such as NF-κB, and generate NO, making them ideal models to understand inflammatory mechanisms. Moreover, macrophages are involved in the activation of Nrf2, a transcription factor critical for the antioxidant response, allowing these cell lines to enable a comprehensive assessment of antioxidant activity within an inflammatory context.
(§2) Cultivated in a Roswell Park Memorial Institute (RPMI) 1640 medium (RPMI 1640 Sigma-Aldrich, CAS No. R7755, St. Louis, MO, USA) supplemented with 2 mM L-glutamine (≥99% Sigma-Aldrich, CAS No. 56-85-9, St. Louis, MO, USA), 10% foetal bovine serum (FBS Sigma-Aldrich, CAS No. TMS-016, St. Louis, MO, USA), and 10,000 units of penicillin and 10 mg streptomycin mL^−1 (Sigma-Aldrich, CAS No. P4333, St. Louis, MO, USA) in culture flasks, the cells were maintained in an incubator under normoxic conditions (20–21% O2) and a humidified atmosphere (5% CO2, at 37 °C).
(§3) Stock solutions of the samples (extracts and compounds) were prepared at a concentration of 1 mM using dimethyl sulfoxide (DMSO ≥ 99.9% Sigma-Aldrich, CAS No. 67-68-5, St. Louis, MO, USA) as the solvent. Dilutions from these stock solutions were then made to achieve concentrations between 100 and 0.20 μg mL^−1 or μM in the culture medium, which contained 0.5% DMSO. A control group consisting only of the culture medium with 0.5% DMSO was also included to determine its potential cytotoxicity.
(§4) The 50% cytotoxic concentration (CC50), 50% inhibitory concentration (IC50), and half-maximal effective concentration (EC50) values were calculated using the sigmoidal dose–response function. All experiments were conducted in triplicate, and the data obtained were expressed as the mean and standard deviation. A two-way analysis of variance (ANOVA) combined with Dunnett’s multiple comparisons test (p < 0.001) was performed for the cytotoxicity, NF-κB inhibition, NO inhibition and Nrf2 activation assays, while a one-way ordinary ANOVA combined with Dunnett’s multiple comparisons test (p < 0.001) was conducted for the SOD assay. All statistical analyses were performed using GraphPad Prism version 10.0.0 (La Jolla, CA, USA, www.graphpad.com, accessed on 28 August 2024).
(§5) Cell viability was evaluated using a colorimetric assay in 96-well plates, employing 3-amino-7-dimethylamino-2-methylphenazine hydrochloride salt reagent (NR, Sigma-Aldrich, CAS No. 553-24-2, St. Louis, MO, USA). ACTD (≥95% Sigma-Aldrich, CAS No. 50-76-0, St. Louis, MO, USA) was used as a positive control, with a CC50 value of 0.01 μg mL^−1 for the extracts, or 0.008 μM for the compounds. The IC-21 and RAW 264.7 cell lines were cultured in 96-well plates at 37 °C with 5% CO2 until >90% confluency was achieved (1 × 10^4 cells per well). Subsequently, the cultures were treated with sample dilutions (100–0.20 μg mL^−1 or μM) for 72 h at 37 °C with 5% CO2 in phenol red-free RPMI. The supernatant was then discarded, and the cells were washed with phosphate-buffered saline (PBS) before being incubated with […] NR (50 μg mL^−1; 173 μM) for 3 h at 37 °C with 5% CO2. NR labelling was performed after DMSO treatment. […]

[2] = NR (neutral red) viability assay, RAW 264.7 cells; format: cell-based, Mus musculus; settings: mouse, RAW 264.7, 72 h
Text: as §1, §2, §3, §4, §5

[3] = NR viability assay, value not assigned to one cell line; format: cell-based, Mus musculus; settings: mouse
Description: (§6) Cell viability was evaluated using a colorimetric assay in 96-well plates, employing 3-amino-7-dimethylamino-2-methylphenazine hydrochloride salt reagent (NR, Sigma-Aldrich, CAS No. 553-24-2, St. Louis, MO, USA). ACTD (≥95% Sigma-Aldrich, CAS No. 50-76-0, St. Louis, MO, USA) was used as a positive control, with a CC50 value of 0.01 μg mL^−1 for the extracts, or 0.008 μM for the compounds. The IC-21 and RAW 264.7 cell lines were cultured in 96-well plates at 37 °C with 5% CO2 until >90% confluency was achieved (1 × 10^4 cells per well). Subsequently, the cultures were treated with sample dilutions (100–0.20 μg mL^−1 or μM) for 72 h at 37 °C with 5% CO2 in phenol red-free RPMI. The supernatant was then discarded, and the cells were washed with phosphate-buffered saline (PBS) before being incubated with […] NR (50 μg mL^−1; 173 μM) for 3 h at 37 °C with 5% CO2. NR labelling was performed after DMSO treatment. After incubation, the labelled sample dilutions were rapidly washed with a fixative solution composed of 1% calcium chloride (CaCl2 Sigma-Aldrich, CAS No. 10043-52-4, St. Louis, MO, USA) and 0.5% formaldehyde solution (≥36.0% in H2O Sigma-Aldrich, CAS No. 50-00-0, St. Louis, MO, USA), then diluted with 100 μL of the NR extraction solution. Finally, the plates were read at 540 nm using a microplate reader (Anthos 2020, version 2.0.5, Biochrom Ltd., Cambridge, UK).

[4] = tested on: IC-21 and RAW 264.7 cell lines; test: as above; format: cell-based, Mus musculus; settings: across IC-21 and RAW 264.7 / cell line not given, compounds series
Description: as §6

SMILES | concentration activating the Nrf2 signalling pathway (Nrf2) [µM] | CC50 at 72 h ([1]; compounds series) [nM] | CC50 at 72 h ([1]; extracts series) [µg/mL] | CC50 at 72 h ([2]; compounds series) [nM] | CC50 at 72 h ([2]; extracts series) [µg/mL] | CC50 at 72 h ([3]; across IC-21 and RAW 264.7 / cell line not given, compounds series) [nM] | CC50 at 72 h ([3]; cell line not stated, extracts series) [µg/mL] | CC50 [4] [nM]
C[S+]([O-])CCCCN=C=S (centres unmarked) [sulforaphane] | 5 to 20 | – | – | – | – | – | – | –
Cc1c2oc3c(C)ccc(C(=O)N[C@@H]4C(=O)N[C@H](C(C)C)C(=O)N5CCC[C@H]5C(=O)N(C)CC(=O)N(C)[C@@H](C(C)C)C(=O)O[C@@H]4C)c3nc-2c(C(=O)N[C@@H]2C(=O)N[C@H](C(C)C)C(=O)N3CCC[C@H]3C(=O)N(C)CC(=O)N(C)[C@@H](C(C)C)C(=O)O[C@@H]2C)c(N)c1=O [ACTD, actinomycin D, reference compound] (I: T[dV]P[Sar][NMeV] / II: T[dV]P[Sar][NMeV]; ester I:1-I:C, II:1-II:C; linker I:N-II:N via Actinocin(9to1)) | – | 8.5 | 0.0143 | 8.8 | 0.0193 | 8.5 to 8.8 | 0.01 | 8
